Measurements taken from a melting point compilation (Tetko et al.; mined from patent text by program, amines drawn as free bases though some values may be those of a salt).

Structure (SMILES)	melting point [°C]
COc1cccc2c1C(=O)C(Br)=C(Br)C2=O	190
CCOc1ccc(N2CCN(c3c(C)c4c(c(OC)c3C)OC(C)(C)C4)CC2)cc1	152 to 154
CC(C)(C)c1ccc(C[C@@H](NC(=O)c2ccc(F)c3ccccc23)[C@@H](O)c2ccc(F)cc2)cc1 (racemic)	149 to 150
CCCCCCCCCCCCCCOc1ccccc1C(=O)N(CC)CC	31 to 32
COc1cc2c(cc1OC)C1CC(=O)C3CCCCC3N1CC2 (centres undefined)	129 to 141
Nc1cccc2c1N1CCN=C1S2	229
Cc1nc(CCO)c2c(n1)N(N)C(=O)C(C)(C)O2	168 to 170
CS(=O)(=O)c1ccc(Oc2cc(OCc3ccccc3)c3[nH]c(-c4ncc(CO)s4)cc3c2)cc1	125 to 126
CC(C)c1c(CO)n(-c2ccc(F)cc2)c(=O)c2ccccc12	157 to 158
CCOCc1nc2c(N)nc3ccccc3c2s1	149 to 151
CN(C)c1cc(Cl)c2c(c1)NC(=O)C(C)(c1ccccc1)C2=O (centres undefined)	224 to 226
Cc1nc(NCCSCc2nc[nH]c2C)[nH]c(=O)c1CCc1ccccc1	222 to 224
CCCn1c(COC)nc2c(N)nc3ccc(OCCCN4CCN(c5ccccn5)CC4)cc3c21	196 to 197
O=C(N[C@H](Cc1ccc(C(F)(F)F)cc1)[C@@H](O)c1ccc(F)cc1)c1ccc2c(c1)OCO2 (racemic)	180 to 181
Cc1cc(-c2ccccc2)n2nc(SCc3ccccc3)nc2n1	110 to 111
ICCCCCCOc1ccc(C2=C(c3ccccc3)CCCc3cc(OC4CCCCO4)ccc32)cc1 (centres undefined)	108 to 110
Nc1ccc(C(c2ccccc2F)n2ccnc2)cc1[N+](=O)[O-] (centres undefined)	176
Cc1nnc2n1-c1ccccc1NC2C (centres undefined)	172 to 173
O=C1CCCCCC1n1nc(-c2c(-c3ccccc3)nn3ccccc23)ccc1=O (centres undefined)	112 to 114
N#Cc1c(N)[nH]c2ccc(Sc3ccc(O)cc3)cc12	241 to 242
CCOCC1=NC(=Cc2cccs2)C(=O)O1	102
COC1C(OC(=O)NC(=O)CCl)CCC(O)(CSC)C1C1(C)OC1CC=C(C)C (centres undefined)	101 to 102
CCCCCC(C)(c1ccc(O)c(C)c1)c1ccc(O)c(C)c1	99 to 101
Nc1nc(-c2ccnc(-c3ccc(N4CCOCC4)cc3)c2)c(-c2ccccn2)s1	276
O=c1[nH]c2ccc(F)cc2c(=O)o1	240
O=C(O)Cc1ccc(NC(=O)C(CCc2ccccc2)NS(=O)(=O)c2ccc(Cl)cc2)cc1 (racemic)	163 to 167
CCCCCC/C=C/CCCCCCCCCC(=O)Nc1nc(CC(=O)O)cs1	116 to 117

Structure (SMILES)	melting point [°C]
CC(=O)c1ccccc1C(O)=S	127 to 129
CCCN1CCc2c(NC(C)=O)ccc(Br)c2C1	144 to 145
CCC(=C[N+](=O)[O-])NCc1ccc(Cl)nc1	95 to 98
CC(C)(C)OC(=O)N[C@H]1CC[C@H](CCN2CCCC2)CC1	110
CCC(CCN=C(O)C(Br)=C(Br)C(=O)O)c1ccccc1 (centres undefined)	71 to 73
C#CCOc1ccc(Br)cn1	58 to 60
Oc1ccccc1OCC1NCCS1 (centres undefined)	76 to 78
CN1CCc2ccc3cc[nH]c3c2CC1	150 to 153
CN(C)CC=C(c1ccc(-c2ccccc2)cc1)c1ccc(-c2ccccc2)cc1	94 to 95
Cc1oc(-c2ccccc2)nc1COc1ccc(CCC(C(=O)O)c2c[nH]nc2-c2ccccc2)cc1 (centres undefined)	104 to 105
NC(=O)N(CCCl)C(c1ccccc1)P(=O)(O)O (centres undefined)	195
COc1nc(C)cnc1NS(=O)(=O)c1cccnc1-c1ccc(CC(C)(C)C)cc1	159 to 160
CC(NC(=O)/C=C\C(=O)O)C(O)c1ccccc1 (centres undefined)	154 to 156
CC(C)OC(=O)Nc1cccc(-c2ccnc3c(C(=O)c4ccco4)cnn23)c1	140 to 143
COc1ccc(/C=C/C(=O)N2CC(CCl)c3c2cc([N+](=O)[O-])c2cc(S(=O)(=O)NCCO)ccc32)cc1 (centres undefined)	250 to 251
Cc1cc(N2CCN(Cc3ccc(F)cc3)C2=O)sc1C(=O)NCc1cccnc1	119 to 120
Cc1oc(-c2ccccc2)nc1COc1ccc(COc2ncccc2CC(=O)O)cc1	144 to 145
O=Cc1ccc(CN2C(=O)c3ccccc3C2=O)c(Cl)c1	123 to 126
Cc1cc(=O)n(C)c(=O)n1C	113 to 114
CNC(=S)N(C)c1ccc(OC)nc1	116
CNC1(c2ccccc2)CC=C(c2[nH]c3ccccc3c2CCc2ccncc2)CC1 (centres undefined)	168 to 172
c1ccc(-c2cnc(-c3ccccc3)s2)cc1	102 to 105
Cc1ccc(-c2cc(F)c(F)cc2-c2ccc(S(N)(=O)=O)cc2)cc1	103 to 104
Nc1cc(S(=O)(=O)CCO)ccc1Nc1ccc(N)c(S(=O)(=O)O)c1	254
O=C1Cc2c(OCCN3CCc4ccccc4C3)ccc(F)c2N1	230 to 235
CN1Cc2c(CCl)ncn2-c2ccccc2C1=O	277 to 280

Further lines, results first:

melting point [°C]	Structure (SMILES)
235 to 237	CN(C)c1nc2ccccc2n(-c2ccc(Cl)cc2)c1=O
175	CCOC(=O)CC[C@H](NC(=O)c1ccc(NS(=O)(=O)c2cc3c(cc2Br)CCc2nc(N)[nH]c(=O)c2-3)cc1)C(=O)OCC
177 to 178	CC(=O)Nc1c(C#N)cnn1-c1c(Cl)cc(C(F)(F)F)c(Cl)c1Cl
228	N#Cc1c(Cl)c2cc(F)ccc2n(Cc2ccccc2)c1=O
207 to 210	N=C(N)NCCCCOc1cccc2c1NC(=O)C(CC(=O)O)C2 (centres undefined)
147 to 149	Cc1ncccc1C(=O)NCC1CCN(C[C@H]2COc3cccc(Cl)c3O2)CC1
255 to 259	CCOC(=O)C1=C(C)NC(C)=C(C(=O)OCC)C1c1csc2ccc([N+](=O)[O-])cc12
160 to 162	COc1ccc2nc(-c3cc(C)c(OCCO)c(C)c3)n(-c3ccc(Br)cc3)c(=O)c2c1
190 to 192	CC(=O)NC[C@H]1CN(c2ccc(N3CCN(C(=O)CCC(=O)c4ccc(CN(C)C)cc4)CC3)c(F)c2)C(=O)O1
240 to 241	COc1cc(OC)c(-c2cc3ccccc3s2)cc1/C=C/C(=O)c1ccc(C(N)=O)cc1
183 to 184	COC(=O)c1ccc(O)c(C23CC4CC(CC(C4)C2)C3)c1
75.5 to 76.5	Cc1cc(Cl)c(C(=O)c2ccccc2)c(Cl)c1
137 to 138	CCN(CC)c1ccc2c(c1)[C@@H]1[C@H](C2)c2ccc(N(CC)CC)cc2N1C(C)=O (relative stereo)
91 to 92	COC(=O)[C@H]1Cc2c([nH]c3ccccc23)[C@@H](c2ccc3occc3c2)N1C(=O)[C@H](C)NC(=O)OCc1ccccc1
114 to 115	CC(=O)c1c(F)c(F)c(OCCOc2ccc3ccccc3c2)c(F)c1F
70 to 72	CON(C(=O)c1cn(C)nc1C(F)F)C(C)Cc1c(Cl)sc(Cl)c1Cl (centres undefined)
145 to 147	CCCCc1nn(-c2cc([N+](=O)[O-])ccc2Cl)c(C(N)=O)c1Cc1ccc(Br)cc1F
116	COc1ccc(CC2(C)CN(C(c3ccccc3)c3ccccc3)CCN2C(C)=O)cc1OC (centres undefined)
69 to 71	CON=C(C#N)c1ccccc1COc1ccc(Cl)cc1
98 to 100	CC(=O)OCC1OC(n2c(Cl)nc3cc(Cl)ccc32)C(OC(C)=O)C1OC(C)=O (centres undefined)
101	CCC(=O)Nc1cc(OC)cc2c1CC(C)O2 (centres undefined)
70.5 to 71.5	CC(C)(C)c1ccc(C#N)cc1[N+](=O)[O-]
72.1 to 72.9	COC(=O)C(C)OC(=O)Cc1cc(Oc2ccc(C(F)(F)F)cc2Cl)ccc1[N+](=O)[O-] (centres undefined)

melting point [°C]	Structure (SMILES)
174 to 175	CCOC(=O)CCN(CNC(=O)OC(C)(C)C)C(=O)Cn1cc(C)c(=O)[nH]c1=O
215 to 220	CCOC(=O)CCCOc1cc(C=Cc2ccc3ccc(Br)cc3n2)ccc1Cl
97 to 103	C=CCn1c(=O)c(C(=O)OCC)c(N2CCCC2)c2ccc(C)nc21
215 to 217	COc1cc(OC)c(-c2cc3ccccc3s2)cc1/C=C/C(=O)c1ccc(C(=O)NCC(F)(F)F)cc1
160 to 162	CCOC(=O)c1ccc2c(c1)sc1cc(N(C)C)ccc12
264 to 265	Cn1c(COc2ccc(CC3SC(=O)NC3=O)cc2)nc2cnccc21 (centres undefined)
185 to 187	CCc1nc2c(N)nc(C)c(C)c2n1CCOCCNC(=O)NC(=O)c1ccccc1
139 to 140	CCOC(=O)CC(c1ccccc1)N(N)C(=O)c1cc(C(=O)OCc2ccccc2)ccc1OCCOC (racemic)
> 260	O=C1CCC(N2C(=O)c3cccc(CNC(=O)c4cncnc4)c3C2=O)C(=O)N1 (centres undefined)
214 to 217	CCOC(=O)c1nc(-c2ccc([N+](=O)[O-])cc2)[nH]c1-c1ccc(OCC)cc1
287 to 288	O=C(O)c1ccc(C(=O)O)c(-c2nc3ccccc3s2)c1
267 to 270	COc1nc2c(c(OC)n1)C(c1ccc(F)c(OC)c1)C1=C(COC1=O)N2 (centres undefined)
180	Cn1cnc2c(OC3SCC(O)C(O)C3O)cccc21 (centres undefined)
133 to 134	COc1ccccc1N1CCN(CCNC(=O)c2cccc(OC)c2OC)CC1
230	CC(=O)Nc1ccc(N2N=C(C)CC2=O)cc1
204 to 208	CCOC(=O)CN1C(=O)C2=C(c3ccccc3)N(CC(=O)OCC)C(=O)C2=C1c1ccccc1
53 to 56	CCN(CC)C(=O)COC(=O)/C=C/C(=O)OC
96 to 97	CN(C)C(=O)N1CC(Sc2ccc(Cl)cc2)C1
101 to 103	COc1cc(C(=O)C(=O)N2C3CCCC2C(=O)N(CCCCc2ccccc2)C3=O)cc(OC)c1OC
112 to 113	CCOc1nc2cccc(C(=O)OC)c2n1Cc1ccc(-c2ccccc2C(=O)OC)cc1
234	NC(=O)Cc1ccc(Nc2nc(OCC3CCCCC3)c3nc[nH]c3n2)cc1
156 to 158	CCCN1CC(OCC2CC2)(C(F)(F)F)c2cc(Cl)ccc2NC1=O (centres undefined)
260 to 264	COc1ccccc1N(C(N)=O)c1ccc(CC(=O)O)cc1C
